Data on 4 compounds can be found in US4755526A, “Method of inhibiting aromatase” (Eli Lilly and Company, priority 1984, dated 1988).

The subject of assay [1] is breast cancer. To be noted: Cancer Research, Vol. 42, Suppl. 8: 3261s (1982); cited from earlier work.
Assay [2] has as its system estrogen synthesis. As to the kind of experiment: Estrogen synthesis inhibition in rats (uterine weight and ovarian steroid concentrations). The assay is classed as in vivo, female Wistar rats. The settings on record: for Mean Steroid Concentration, estradiol / Mean Steroid Concentration, estriol / Mean Steroid Concentration, estrone: ovaries; for Mean Uterine Weight: testosterone propionate-treated rats.

In assay [3] the test system is DMBA-induced mammary tumors. As to the kind of experiment: DMBA-induced mammary tumor inhibition. To be noted: 300 ppm in diet. The format is in vivo, female Sprague-Dawley rats. As for the experimental part: Mammary tumors were produced in female Sprague-Dawley rats which were 50-60 days old by the gavage administration of 20 mg of 7,12-dimethylbenz[a]anthracene (DMBA). About six weeks after DMBA administration, the mammary glands were palpated at weekly intervals for the appearance of tumors. Whenever one or more tumors appeared and were measurable in an animal, that animal was selected for experimentation. […] Each control and test group contained 8 animals. The test compound was administered either mixed into the food at a concentration of 300 ppm (corresponding to an appropriate daily dose of 30 mg/kg) or the compounds were dissolved or suspended in corn oil and administered once daily by gavage. Every experiment included a group of control rats having tumors and were either given food without the compound admixed or corn oil vehicle by gavage, depending on how the test compound was administered. […] The area of each tumor was calculated by multiplying the shortest and longest diameters of the tumor. The treatment and measurement of animals continued for 4-8 weeks at which time the final areas of the tumors were determined. For each compound (and control) at each dose level, the change in the mean tumor area was determined. The mean change was analyzed for its significance using Dunnett's t-test.

The mark [4] stands for this setting: 30 ppm in feed (approximately 3 mg/kg/day).
[5] abbreviates: 300 ppm in feed (approximately 30 mg/kg/day).

Turning to `CCC1(c2ccc(N)cc2)CCC(=O)NC1=O` (stereo not drawn) [aminoglutethimide], the “effect in treatment of breast cancer” value in assay [1] is reported as “beneficial effect in treatment of breast cancer”.

As for `C[C@]12C=CC(=O)C=C1CC[C@@H]1[C@@H]2CC[C@]2(C)OC(=O)CC[C@@H]12` [testolactone], the “effect in treatment of breast cancer” value in assay [1] was “beneficial effect in treatment of breast cancer”.

As to `Clc1ccc(C(c2ccc(Cl)cc2)(c2cccnc2)n2ccnc2)cc1` [3-[4,4'-dichloro-α-(1-imidazolyl)diphenylmethyl]pyridine], in assay [2] (setting [4]), the “Mean Steroid Concentration, estradiol” value is on record as 1.25 femtomoles per milligram of protein; the “Mean Steroid Concentration, estriol” value is listed as 0.27 femtomoles per milligram of protein; the “Mean Steroid Concentration, estrone” value is on record as 0.11 femtomoles per milligram of protein; the “Mean Uterine Weight” value was found to be 118.0 mg. For the same compound, in assay [2] (setting [5]), the “Mean Steroid Concentration, estradiol” value is 0.75 femtomoles per milligram of protein; the “Mean Steroid Concentration, estriol” value is reported as 0.28 femtomoles per milligram of protein; the “Mean Steroid Concentration, estrone” value is reported as 0.24 femtomoles per milligram of protein; the “Mean Uterine Weight” value is given as 96.8 mg. The “Mean Tumor Area, Start” value in assay [3] (4 weeks test) was 53.8 mm^2. The “Mean Tumor Area, Finish” value in assay [3] (4 weeks, control 62.8 to 1087.3 (Test II), 1087.0 (Test III)) was determined as 154.0 mm^2.

As to `Clc1ccc(C(c2ccccc2)n2ccnc2)cc1` (stereo not drawn) [1-[(4-chlorophenyl)phenylmethyl]-1H--imidazole], in assay [2] (setting [4]), the “Mean Steroid Concentration, estradiol” value was 0.92 femtomoles per milligram of protein; the “Mean Steroid Concentration, estriol” value is 0.75 femtomoles per milligram of protein; the “Mean Uterine Weight” value worked out at 114.8 mg. For the same compound, in assay [2] (setting [5]), the “Mean Steroid Concentration, estradiol” value is given as 0.00 femtomoles per milligram of protein; the “Mean Steroid Concentration, estriol” value is 0.35 femtomoles per milligram of protein; the “Mean Steroid Concentration, estrone” value is recorded as 0.11 femtomoles per milligram of protein; the “Mean Uterine Weight” value worked out at 68.4 mg. Also, the “Mean Tumor Area, Start” value in assay [3] (5 weeks test) is 49.3 mm^2. The “Mean Tumor Area, Finish” value in assay [3] (5 weeks, control 48.4 to 818.0) amounted to 467.0 mm^2.
